pEC50: −log10 of the molar value.
Assays:
[1] = Compound cytotoxicity, XTT-based colorimetric assay; format: cell-based; details: human, uninfected MT2 cells, day 4, XTT
Procedure: Compound cytotoxicity and the corresponding CC50 values were determined using the same protocol as described in the antiviral assay except that uninfected cells were used. Cytotoxicity was assessed on day 4 in uninfected MT2 cells by using a XTT (2,3-bis[2-Methoxy-4-nitro-5-sulfophenyl]-2H-tetrazolium-5-carboxyanilide inner salt)-based colorimetric assay (Sigma-Aldrich, St Louis, Mo.).

[2] = test system: recombinant NL4-3 virus (Renilla luciferase in nef) in MT-2 cells; assay: whole plant or invertebrate; format: cell-based, HIV; details: luciferase activity
Procedure: HIV cell culture assay—MT-2 cells, 293T cells and the proviral DNA clone of NL4-3 virus were obtained from the NIH AIDS Research and Reference Reagent Program. MT-2 cells were propagated in RPMI 1640 media supplemented with 10% heat inactivated fetal bovine serum (FBS), 100 μg/ml penicillin G and up to 100 units/mL streptomycin. The 293T cells were propagated in DMEM media supplemented with 10% heat inactivated FBS, 100 μg/mL penicillin G and 100 μg/mL streptomycin. A recombinant NL4-3 proviral clone, in which a section of the nef gene was replaced with the Renilla luciferase gene, was used to make the reference virus used in these studies. The recombinant virus was prepared through transfection of the recombinant NL4-3 proviral clone into 293T cells using Transit-293 Transfection Reagent from Mirus Bio LLC (Madison, Wis.). Supernatent was harvested after 2-3 days and the amount of virus present was titered in MT-2 cells using luciferase enzyme activity as a marker by measuring luciferase enzyme activity. Luciferase was quantitated using the EnduRen Live Cell Substrate from Promega (Madison, Wis.). Antiviral activities of compounds toward the recombinant virus were quantified by measuring luciferase activity in MT-2 cells infected for 4-5 days with the recombinant virus in the presence of serial dilutions of the compound.
(Johnson V A, Byington R T. Infectivity Assay. In Techniques in HIV Research. ed. Aldovini A, Walker BD. 71-76. New York: Stockton Press.1990).

[3] = Renilla, NL43, MT-2 cells infected for 4-5 days with recombinant NL4-3 Renilla luciferase virus

## CN(C(=O)[C@H](Cc1cc(F)cc(F)c1)NC(=O)Cn1c(=O)n(CC(=O)N[C@@H](Cc2cc(F)cc(F)c2)C(=O)N(C)c2ccc3scnc3c2)c2ccccc21)c1ccc2scnc2c1 [Example 119]
[1]
  CC50 at 4 days: ≥ 100 µM
[2]; [3]
  pEC50: 8.00

## COc1ccc(N(C)C(=O)[C@H](Cc2ccccc2)NC(=O)NS(=O)(=O)N[C@@H](Cc2ccccc2)C(=O)N(C)c2ccc(OC)cc2C)cc1 [Example 16]
[1]
  CC50 at 4 days: ≥ 33.3 µM
[2]; [3]
  pEC50: 5.76

## C=CCN(C(=O)[C@H](Cc1cc(F)cc(F)c1)NC(=O)c1cc(F)c(F)cc1C(=O)N[C@@H](Cc1cc(F)cc(F)c1)C(=O)N(CC=C)c1ccc(OC)cc1)c1ccc(OC)cc1 [Example 192]
[1]
  CC50 at 4 days: 58.2 µM
[2]; [3]
  pEC50: 5.14

## Cc1ccc(N(C)C(=O)[C@H](Cc2ccccc2)NC(=O)NS(=O)(=O)N[C@@H](Cc2ccccc2)C(=O)N(C)c2ccc(C)c(Cl)c2)cc1Cl [Example 220]
[1]
  CC50 at 4 days: 16.7 µM
[2]; [3]
  pEC50: 5.42

## COc1ccc(N(C)C(=O)[C@H](Cc2cc(F)cc(F)c2)Nc2ncc(-c3cnc(N[C@@H](Cc4cc(F)cc(F)c4)C(=O)N(C)c4ccc(OC)cc4)nc3)cn2)cc1 [Example 88]
[1]
  CC50 at 4 days: 20.8 µM
[2]; [3]
  pEC50: 4.86

## COc1ccc(N(C)C(=O)[C@H](Cc2ccccc2)NC(=O)CC(=O)N[C@@H](Cc2ccccc2)C(=O)N(C)c2ccc(OC)cc2)cc1 [Example 3]
[1]
  CC50 at 4 days: 70.9 µM
[2]; [3]
  pEC50: 5.71

## COc1ccc(N(C)C(=O)[C@H](Cc2cc(F)cc(F)c2)NC(=O)NS(=O)(=O)N[C@@H](Cc2cc(F)cc(F)c2)C(=O)N(C)c2ccc(OC)cc2)cc1 [Example 20]
[1]
  CC50 at 4 days: 35 µM
[2]; [3]
  pEC50: 8.00

## COc1ccc(N(C)C(=O)[C@H](Cc2cc(F)cc(F)c2)NC(=O)Cn2c(=O)c3ccccc3n(CC(=O)N[C@@H](Cc3cc(F)cc(F)c3)C(=O)N(C)c3ccc(OC)cc3)c2=O)cc1 [Example 101]
[1]
  CC50 at 4 days: ≥ 100 µM
[2]; [3]
  pEC50: 7.52

## CCN(C(=O)[C@H](Cc1cc(F)cc(F)c1)NC(=O)CN1c2ccccc2N(CC(=O)N[C@@H](Cc2cc(F)cc(F)c2)C(=O)N(CC)c2ccc(OC(F)F)cc2)S1(=O)=O)c1ccc(OC(F)F)cc1 [Example 147]
[1]
  CC50 at 4 days: ≥ 100 µM
[2]; [3]
  pEC50: 7.05

## CN(C(=O)[C@H](Cc1cc(F)cc(F)c1)NC(=O)NS(=O)(=O)N[C@@H](Cc1cc(F)cc(F)c1)C(=O)N(C)c1ccc2c(c1)ncn2C)c1ccc2c(c1)ncn2C [Example 186]
[1]
  CC50 at 4 days: ≥ 100 µM
[2]; [3]
  pEC50: 5.21

## COc1ccc(N(C)C(=O)[C@H](Cc2cc(F)cc(F)c2)NC(=O)Cn2c(=O)c(=O)n(CC(=O)N[C@@H](Cc3cc(F)cc(F)c3)C(=O)N(C)c3ccc(OC)cc3)c3ccccc32)cc1 [Example 98]
[1]
  CC50 at 4 days: 11.2 µM
[2]; [3]
  pEC50: 7.52

## COc1ccc(N(C)C(=O)[C@H](Cc2ccccc2)NC(=O)C(C)(C)C(=O)N[C@@H](Cc2ccccc2)C(=O)N(C)c2ccc(OC)cc2)cc1 [Example 4]
[1]
  CC50 at 4 days: ≥ 100 µM
[2]; [3]
  pEC50: 5.73

## COc1ccc(N(C)C(=O)[C@H](Cc2cc(F)cc(F)c2)NC(=O)Cn2c(=O)n(CC(=O)N[C@@H](Cc3cc(F)cc(F)c3)C(=O)N(C)c3ccc(OC)cc3)c3cc(F)ccc32)cc1 [Example 76]
[1]
  CC50 at 4 days: 11.4 µM
[2]; [3]
  pEC50: 7.52

## COc1ccc(N(C)C(=O)[C@H](Cc2cc(F)cc(F)c2)NC(=O)Cn2c(=O)n(CC(=O)N[C@@H](Cc3cc(F)cc(F)c3)C(=O)N(C)c3ccc(OC)cc3)c3ccccc32)cc1 [Example 69]
[1]
  CC50 at 4 days: 11.8 µM
[2]; [3]
  pEC50: 7.70

## COc1ccc(N(C)C(=O)[C@H](Cc2ccccc2)NC(=O)c2cc(C)cc(C(=O)N[C@@H](Cc3ccccc3)C(=O)N(C)c3ccc(OC)cc3)c2)cc1 [Example 102]
[1]
  CC50 at 4 days: ≥ 33.3 µM
[2]; [3]
  pEC50: 7.30

## CN(C(=O)[C@H](Cc1cc(F)cc(F)c1)NC(=O)/C=C\C(=O)N[C@@H](Cc1cc(F)cc(F)c1)C(=O)N(C)c1ccc2scnc2c1)c1ccc2scnc2c1 [Example 128]
[1]
  CC50 at 4 days: 12.6 µM
[2]; [3]
  pEC50: 7.10

## COc1ccc(N(C)C(=O)[C@H](Cc2ccccc2)NC(=O)C(C)n2c(=O)n(C(C)C(=O)N[C@@H](Cc3ccccc3)C(=O)N(C)c3ccc(OC)cc3)c3ccccc32)cc1 (single isomer, unassigned) [Example 131]
[1]
  CC50 at 4 days: 6.3 µM
[2]; [3]
  pEC50: 6.31

## C=CCCN(C(=O)[C@H](Cc1cc(F)cc(F)c1)NC(=O)NS(=O)(=O)N[C@@H](Cc1cc(F)cc(F)c1)C(=O)N(CCC=C)c1ccc2scnc2c1)c1ccc2scnc2c1 (single isomer, unassigned) [Example 141]
[1]
  CC50 at 4 days: 16.2 µM
[2]; MT-2 cells infected for 4-5 days with recombinant NL4-3 Renilla luciferase virus
  pEC50: 7.05

## CCOc1ccc(N(CC)C(=O)[C@H](Cc2ccccc2)NC(=O)NS(=O)(=O)N[C@@H](Cc2ccccc2)C(=O)N(CC)c2ccc(OCC)cc2)cc1 [Example 5]
[1]
  CC50 at 4 days: ≥ 33.3 µM
[2]; [3]
  pEC50: 6.82

## COc1ccc(N(C)C(=O)[C@H](Cc2ccccc2)NC(=O)NS(=O)(=O)N[C@@H](Cc2ccccc2)c2nc(C)no2)cc1 [Example 7]
[1]
  CC50 at 4 days: ≥ 100 µM
[2]; [3]
  pEC50: 5.42

## COc1ccc(N(C)C(=O)[C@H](Cc2ccccc2)NC(=O)Cn2c(=O)n(CC(=O)N[C@@H](Cc3ccccc3)C(=O)N(C)c3ccc(OC)cc3)c3cc(N)ccc32)cc1 [Example 90]
[1]
  CC50 at 4 days: 22.7 µM
[2]; [3]
  pEC50: 6.47

## NC(=O)c1cc(-c2cccnc2[C@H](Cc2cc(F)cc(F)c2)NC(=O)NS(=O)(=O)N[C@@H](Cc2cc(F)cc(F)c2)c2ncccc2-c2ccc(F)c(C(N)=O)c2)ccc1F [Example 70]
[1]
  CC50 at 4 days: ≥ 100 µM
[2]; [3]
  pEC50: 6.82

## COc1ccc(N(C)C(=O)[C@H](Cc2ccccc2)NC(=O)CCCCC(=O)N[C@@H](Cc2ccccc2)C(=O)N(C)c2ccc(OC)cc2)cc1 [Example 23]
[1]
  CC50 at 4 days: 26.9 µM
[2]; [3]
  pEC50: 5.94

## CN(C(=O)[C@H](Cc1cc(F)cc(F)c1)NC(=O)NS(=O)(=O)N[C@@H](Cc1cc(F)cc(F)c1)C(=O)N(C)c1ccc(N2CCOCC2)cc1)c1ccc(N2CCOCC2)cc1 [Example 183]
[1]
  CC50 at 4 days: 78.9 µM
[2]; [3]
  pEC50: 7.05

## Cc1nc2cc(N(C)C(=O)[C@H](Cc3cc(F)cc(F)c3)NC(=O)NS(=O)(=O)N[C@@H](Cc3cc(F)cc(F)c3)C(=O)N(C)c3ccc4sc(C)nc4c3)ccc2s1 [Example 151]
[1]
  CC50 at 4 days: 33.4 µM
[2]; [3]
  pEC50: 6.72

## COc1ccc(N(C)C(=O)[C@H](Cc2ccccc2)NC(=O)CN(CCO)CC(=O)N[C@@H](Cc2ccccc2)C(=O)N(C)c2ccc(OC)cc2)cc1 [Example 29]
[1]
  CC50 at 4 days: 31.8 µM
[2]; [3]
  pEC50: 5.60

## CCN(C(=O)[C@H](Cc1cc(F)cc(F)c1)NC(=O)NS(=O)(=O)N[C@@H](Cc1cc(F)cc(F)c1)C(=O)N(CC)c1ccc(NC(=O)OC)cc1)c1ccc(NC(=O)OC)cc1 [Example 149]
[1]
  CC50 at 4 days: 79.5 µM
[2]; [3]
  pEC50: 5.79

## CN(C(=O)[C@H](Cc1ccccc1)NC(=O)c1ccc(F)c(C(=O)N[C@@H](Cc2ccccc2)C(=O)N(C)c2ccc3scnc3c2)c1)c1ccc2scnc2c1 [Example 169]
[1]
  CC50 at 4 days: 4.5 µM
[2]; [3]
  pEC50: 7.22

## COc1ccc(N(C)C(=O)[C@H](Cc2cc(F)cc(F)c2)NC(=O)c2cc(F)c(F)cc2C(=O)N[C@@H](Cc2cc(F)cc(F)c2)C(=O)N(C)c2ccc(OC)cc2)cc1 [Example 254]
[1]
  CC50 at 4 days: 10 µM
[2]; [3]
  pEC50: 7.05

## CN(C(=O)[C@H](Cc1cc(F)cc(F)c1)NC(=O)NS(=O)(=O)N[C@@H](Cc1cc(F)cc(F)c1)C(=O)N(C)c1ccc(Cl)cc1)c1ccc(Cl)cc1 [Example 165]
[1]
  CC50 at 4 days: 30.3 µM
[2]; [3]
  pEC50: 7.40

## COc1ccc(N(C)C(=O)[C@H](Cc2ccccc2)NC(=O)c2cncc(C(=O)N[C@@H](Cc3ccccc3)C(=O)N(C)c3ccc(OC)cc3)c2)cc1 [Example 99]
[1]
  CC50 at 4 days: 1.8 µM
[2]; [3]
  pEC50: 7.70

## COc1ccc(N(C)C(=O)[C@H](Cc2ccccc2)NC(=O)c2cccc(C(=O)N[C@@H](Cc3ccccc3)C(=O)N(C)c3ccc(OC)cc3)n2)cc1 [Example 39]
[1]
  CC50 at 4 days: ≥ 33.3 µM
[2]; [3]
  pEC50: 6.02

## COc1ccc(N(C)C(=O)[C@H](Cc2ccccc2)NC(=O)Cn2c(=O)n(CC(=O)N[C@@H](Cc3ccccc3)C(=O)N(C)c3ccc(OC)cc3)c3cc(OC)ccc32)cc1 [Example 83]
[1]
  CC50 at 4 days: 6.2 µM
[2]; [3]
  pEC50: 7.05

## Cc1ncc(N(C)C(=O)[C@H](Cc2cc(F)cc(F)c2)NC(=O)NS(=O)(=O)N[C@@H](Cc2cc(F)cc(F)c2)C(=O)N(C)c2cnc(C)nc2)cn1 [Example 207]
[1]
  CC50 at 4 days: ≥ 25 µM
[2]; [3]
  pEC50: 4.60

## CN(C(=O)[C@H](Cc1cc(F)cc(F)c1)NC(=O)CN1c2ccccc2N(CC(=O)N[C@@H](Cc2cc(F)cc(F)c2)C(=O)N(C)c2ccc3scnc3c2)S1(=O)=O)c1ccc2scnc2c1 [Example 118]
[1]
  CC50 at 4 days: ≥ 100 µM

## CN(C(=O)[C@H](Cc1cc(F)cc(F)c1)NC(=O)c1c(F)c(F)c(F)c(C(=O)N[C@@H](Cc2cc(F)cc(F)c2)C(=O)N(C)c2ccc3scnc3c2)c1F)c1ccc2scnc2c1 [Example 81]
[1]
  CC50 at 4 days: 2.8 µM

## CCc1ccc(N(C)C(=O)[C@H](Cc2cc(F)cc(F)c2)NC(=O)NS(=O)(=O)N[C@@H](Cc2cc(F)cc(F)c2)C(=O)N(C)c2ccc(CC)cc2)cc1 [Example 173]
[1]
  CC50 at 4 days: 25.5 µM
